According to ChEMBL document CHEMBL1134982, “Natural PTP1B inhibitors from Broussonetia papyrifera” (Bioorg Med Chem Lett, 2002):

target: T1, Tyrosine-protein phosphatase non-receptor type 1 (Homo sapiens, UniProt P18031); assay: The inhibitory activity tested against human Protein-tyrosine phosphatase 1B enzyme
T1 sequence (P18031 whole entry): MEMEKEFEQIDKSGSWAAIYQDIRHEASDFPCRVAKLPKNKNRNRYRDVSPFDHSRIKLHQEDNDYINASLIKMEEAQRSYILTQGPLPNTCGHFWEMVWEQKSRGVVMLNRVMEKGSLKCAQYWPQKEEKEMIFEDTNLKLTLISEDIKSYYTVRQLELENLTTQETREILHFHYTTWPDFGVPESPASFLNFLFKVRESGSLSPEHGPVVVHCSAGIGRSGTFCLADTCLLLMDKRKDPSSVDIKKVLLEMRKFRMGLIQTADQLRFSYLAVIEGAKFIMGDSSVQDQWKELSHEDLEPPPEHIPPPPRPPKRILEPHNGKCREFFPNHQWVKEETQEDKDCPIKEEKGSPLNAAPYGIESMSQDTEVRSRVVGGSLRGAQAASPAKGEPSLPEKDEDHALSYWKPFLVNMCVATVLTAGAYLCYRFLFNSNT

SMILES | IC50
CC(C)=CCc1cc(-c2oc3cc(O)cc(O)c3c(=O)c2O)cc(O)c1O | 21.5 µM
C=CC(C)(C)c1c(O)cc(O)c2c(=O)c(O)c(-c3cc(O)c(O)c(CC=C(C)C)c3)oc12 | 4.3 µM
CC(C)=CCc1cc(C2CCc3ccc(O)cc3O2)cc(O)c1O (centres undefined) | 41.5 µM
CC(C)=CCc1cc(C(=O)/C=C/c2ccc(O)c(O)c2)c(O)cc1O [BROUSSOCHALCONE A] | 36.8 µM
